Source: PubChem BioAssay (NCI)
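Growth conditions: 96-well plates. Treatment: test compound, 48 hours, 5 concentrations. Analysis: linear interpolation between bracketing concentrations; unreached endpoints set to highest concentration. TGI: concentration producing complete growth inhibition.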

Key:
Test in all cases: growth of human tumour cells (NCI), 48 h
NCI-H460 lung = tested on: NCI-H460 lung
SF-268 CNS = tested on: SF-268 CNS
SNB-75 CNS = tested on: SNB-75 CNS
UO-31 renal = tested on: UO-31 renal
MALME-3M melanoma = tested on: MALME-3M melanoma
NCI-H226 lung = tested on: NCI-H226 lung
HCT-116 colon = tested on: HCT-116 colon
KM12 colon = tested on: KM12 colon
EKVX NSCLC = tested on: EKVX NSCLC
SK-MEL-2 melanoma = tested on: SK-MEL-2 melanoma
DLD-1 colon = tested on: DLD-1 colon
UACC-257 melanoma = tested on: UACC-257 melanoma
M19-MEL melanoma = tested on: M19-MEL melanoma
SK-OV-3 ovarian = tested on: SK-OV-3 ovarian
SF-539 CNS = tested on: SF-539 CNS
M14 melanoma = tested on: M14 melanoma
HOP-18 NSCLC = tested on: HOP-18 NSCLC
DMS 273 small cell lung = tested on: DMS 273 small cell lung
K-562 leukemia = tested on: K-562 leukemia
MOLT-4 leukemia = tested on: MOLT-4 leukemia
CAKI-1 renal = tested on: CAKI-1 renal
A498 renal = tested on: A498 renal
HL-60(TB) leukemia = tested on: HL-60(TB) leukemia
KM20L2 colon = tested on: KM20L2 colon
SW-620 colon = tested on: SW-620 colon
RXF 393 renal = tested on: RXF 393 renal
ACHN renal = tested on: ACHN renal
CCRF-CEM leukemia = tested on: CCRF-CEM leukemia
A549 NSCLC = tested on: A549 NSCLC
U251 CNS = tested on: U251 CNS
TK-10 renal = tested on: TK-10 renal
HCT-15 colon = tested on: HCT-15 colon
SR leukemia = tested on: SR leukemia
IGROV1 ovarian = tested on: IGROV1 ovarian
OVCAR-8 ovarian = tested on: OVCAR-8 ovarian
SNB-78 CNS = tested on: SNB-78 CNS
SK-MEL-5 melanoma = tested on: SK-MEL-5 melanoma
786-0 renal = tested on: 786-0 renal
HOP-62 NSCLC = tested on: HOP-62 NSCLC
SK-MEL-28 melanoma = tested on: SK-MEL-28 melanoma
HT29 colon = tested on: HT29 colon
OVCAR-4 ovarian = tested on: OVCAR-4 ovarian
COLO 205 colon = tested on: COLO 205 colon
OVCAR-5 ovarian = tested on: OVCAR-5 ovarian
UACC-62 melanoma = tested on: UACC-62 melanoma
LXFL 529 NSCLC = tested on: LXFL 529 NSCLC
HCC-2998 colon = tested on: HCC-2998 colon
SN12C renal = tested on: SN12C renal
SNB-19 CNS = tested on: SNB-19 CNS
SF-295 CNS = tested on: SF-295 CNS
NCI-H23 lung = tested on: NCI-H23 lung
NCI-H522 lung = tested on: NCI-H522 lung
DMS 114 small cell lung = tested on: DMS 114 small cell lung
LOX IMVI melanoma = tested on: LOX IMVI melanoma
HOP-92 NSCLC = tested on: HOP-92 NSCLC
OVCAR-3 ovarian = tested on: OVCAR-3 ovarian
XF 498 CNS = tested on: XF 498 CNS
RPMI-8226 leukemia = tested on: RPMI-8226 leukemia
RXF-631 renal = tested on: RXF-631 renal

SMILES: CCOc1ccc(NC(=O)CCc2nnc(SC)o2)cc1
- TGI (NCI-H460 lung): > 100 µM
- TGI (SF-268 CNS): > 100 µM
- TGI (SNB-75 CNS): > 100 µM
- TGI (UO-31 renal): > 100 µM
- TGI (MALME-3M melanoma): > 100 µM
- TGI (NCI-H226 lung): > 100 µM
- TGI (HCT-116 colon): > 100 µM
- TGI (KM12 colon): > 100 µM
- TGI (EKVX NSCLC): > 100 µM
- TGI (SK-MEL-2 melanoma): > 100 µM
- TGI (DLD-1 colon): > 100 µM
- TGI (UACC-257 melanoma): > 100 µM
- TGI (M19-MEL melanoma): > 100 µM
- TGI (SK-OV-3 ovarian): > 100 µM
- TGI (SF-539 CNS): > 100 µM
- TGI (M14 melanoma): > 100 µM
- TGI (HOP-18 NSCLC): > 100 µM
- TGI (DMS 273 small cell lung): > 100 µM
- TGI (K-562 leukemia): > 100 µM
- TGI (MOLT-4 leukemia): > 100 µM
- TGI (CAKI-1 renal): > 100 µM
- TGI (A498 renal): > 100 µM
- TGI (HL-60(TB) leukemia): > 100 µM
- TGI (KM20L2 colon): > 100 µM
- TGI (SW-620 colon): > 100 µM
- TGI (RXF 393 renal): > 100 µM
- TGI (ACHN renal): > 100 µM
- TGI (CCRF-CEM leukemia): > 100 µM
- TGI (A549 NSCLC): > 100 µM
- TGI (U251 CNS): > 100 µM
- TGI (TK-10 renal): > 100 µM
- TGI (HCT-15 colon): > 100 µM
- TGI (SR leukemia): > 100 µM
- TGI (IGROV1 ovarian): > 100 µM
- TGI (OVCAR-8 ovarian): > 100 µM
- TGI (SNB-78 CNS): > 100 µM
- TGI (SK-MEL-5 melanoma): > 100 µM
- TGI (786-0 renal): > 100 µM
- TGI (HOP-62 NSCLC): > 100 µM
- TGI (SK-MEL-28 melanoma): > 100 µM
- TGI (HT29 colon): > 100 µM
- TGI (OVCAR-4 ovarian): > 100 µM
- TGI (COLO 205 colon): > 100 µM
- TGI (OVCAR-5 ovarian): > 100 µM
- TGI (UACC-62 melanoma): > 100 µM
- TGI (LXFL 529 NSCLC): > 100 µM
- TGI (HCC-2998 colon): > 100 µM
- TGI (SN12C renal): > 100 µM
- TGI (SNB-19 CNS): > 100 µM
- TGI (SF-295 CNS): > 100 µM
- TGI (NCI-H23 lung): > 100 µM
- TGI (NCI-H522 lung): > 100 µM
- TGI (DMS 114 small cell lung): > 100 µM
- TGI (LOX IMVI melanoma): > 100 µM
- TGI (HOP-92 NSCLC): > 100 µM
- TGI (OVCAR-3 ovarian): > 100 µM

SMILES: CC1=NN(c2ccccc2)C(=O)/C1=C\c1ccc([N+](=O)[O-])cc1
- TGI (NCI-H460 lung): > 100 µM
- TGI (SF-268 CNS): > 100 µM
- TGI (SNB-75 CNS): > 100 µM
- TGI (UO-31 renal): > 100 µM
- TGI (MALME-3M melanoma): 69.3 µM
- TGI (KM12 colon): 64.3 µM
- TGI (EKVX NSCLC): > 100 µM
- TGI (SK-MEL-2 melanoma): 56 µM
- TGI (DLD-1 colon): > 100 µM
- TGI (UACC-257 melanoma): > 100 µM
- TGI (XF 498 CNS): 44.6 µM
- TGI (SK-OV-3 ovarian): 58.7 µM
- TGI (SF-539 CNS): 45.2 µM
- TGI (M14 melanoma): > 100 µM
- TGI (DMS 273 small cell lung): 62.7 µM
- TGI (K-562 leukemia): 81.4 µM
- TGI (MOLT-4 leukemia): 48.4 µM
- TGI (CAKI-1 renal): 73.6 µM
- TGI (A498 renal): 56.2 µM
- TGI (HL-60(TB) leukemia): 56.2 µM
- TGI (KM20L2 colon): > 100 µM
- TGI (SW-620 colon): 93.2 µM
- TGI (RXF 393 renal): 41.4 µM
- TGI (ACHN renal): > 100 µM
- TGI (CCRF-CEM leukemia): 49.5 µM
- TGI (A549 NSCLC): > 100 µM
- TGI (U251 CNS): > 100 µM
- TGI (TK-10 renal): > 100 µM
- TGI (HCT-15 colon): > 100 µM
- TGI (IGROV1 ovarian): 83.3 µM
- TGI (OVCAR-8 ovarian): > 100 µM
- TGI (SNB-78 CNS): > 100 µM
- TGI (SK-MEL-5 melanoma): 54.5 µM
- TGI (786-0 renal): 85.8 µM
- TGI (SK-MEL-28 melanoma): > 100 µM
- TGI (HT29 colon): 97 µM
- TGI (OVCAR-4 ovarian): 42.2 µM
- TGI (COLO 205 colon): 33 µM
- TGI (RPMI-8226 leukemia): 57.2 µM
- TGI (OVCAR-5 ovarian): 50.8 µM
- TGI (UACC-62 melanoma): 53.3 µM
- TGI (RXF-631 renal): 77.4 µM
- TGI (LXFL 529 NSCLC): > 100 µM
- TGI (HCC-2998 colon): 63.2 µM
- TGI (SN12C renal): > 100 µM
- TGI (SNB-19 CNS): > 100 µM
- TGI (SF-295 CNS): 68.9 µM
- TGI (NCI-H23 lung): 91 µM
- TGI (NCI-H522 lung): 57.9 µM
- TGI (DMS 114 small cell lung): 50 µM
- TGI (LOX IMVI melanoma): 48.1 µM
